system: HCV 1b-377-neo replicon cells; assay: HCV replicon assay, HCV 1b-377-neo replicon cells (1b FRET); format: cell-based, Hepatitis C virus genotype 1b; conditions: HCV 1b-377-neo replicon cells; HCV 1b genotype; read-out: EC50 range against HCV 1b (Table 2, Range)
Outline: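 Compounds were tested in genotype 1b subgenomic replicon cells carrying a neomycin marker, alongside a matched replicon line with an NS5A Y2065H substitution that confers resistance to a reference NS5A inhibitor.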

`COC(=O)N[C@@H](C(=O)N1CCC[C@H]1c1ncc(-c2ccc(-c3ccc(-c4cnc([C@@H]5CCCN5C(=O)[C@@H]5C[C@H](F)CN5)[nH]4)cc3)cc2)[nH]1)c1ccccc1` [Example 79, methyl ((1R)-2-((2)S-2-(5-(4′-(2-((2S)-1-((4S)-4-fluoro-L-prolyl)-2-pyrrolidinyl)-1H-imidazol-5-yl)-4-biphenylyl)-1H-imidazol-2-yl)-1-pyrrolidinyl)-2-oxo-1-phenylethyl)carbamate] was tested, and the EC50 was 0.001 to 0.999 nM.

same assay, conditions: Hepatitis C virus, HCV 1b-377-neo replicon cells; HCV 1b genotype; read-out: EC50 range against HCV 1b (Table 2, Range)

`CO[C@@H](C(=O)N1CCC[C@H]1c1ncc(-c2ccc(-c3ccc(-c4cnc([C@@H]5CCCN5C(=O)[C@H](OC)c5ccccc5)[nH]4)cn3)cc2)[nH]1)c1ccccc1` [Example 135, 5-(2-((2S)-1-((2R)-2-methoxy-2-phenylacetyl)-2-pyrrolidinyl)-1H-imidazol-5-yl)-2-(4-(2-((2S)-1-((2R)-2-methoxy-2-phenylacetyl)-2-pyrrolidinyl)-1H-imidazol-5-yl)phenyl)pyridine] and `CN(C)[C@@H](C(=O)N1CCC[C@H]1c1ncc(-c2ccc(-c3ccc(-c4cnc([C@@H]5CCCN5C(=O)[C@@H](c5ccccc5)N(C)C)[nH]4)nc3)cc2)[nH]1)c1ccccc1` [Example 146, (1R)-2-((2S)-2-(5-(5-(4-(2-((2S)-1-((2R)-2-(dimethylamino)-2-phenylacetyl)-2-pyrrolidinyl)-1H-imidazol-5-yl)phenyl)-2-pyridinyl)-1H-imidazol-2-yl)-1-pyrrolidinyl)-N,N-dimethyl-2-oxo-1-phenylethanamine] fall in the same range of EC50: 0.001 to 0.999 nM for the first, 0.001 to 0.999 nM for the second.

`C[C@H](NC(=O)[C@@H](c1ccccc1)N(C)C)c1ncc(-c2cnc(-c3ccc(-c4cnc([C@@H]5CCCN5C(=O)[C@@H](c5ccccc5)N(C)C)[nH]4)cc3)nc2)[nH]1` [Example 152j-16, (2R)-2-(dimethylamino)-N-((1S)-1-(5-(2-(4-(2-((2S)-1-((2R)-2-(dimethylamino)-2-phenylacetyl)-2-pyrrolidinyl)-1H-imidazol-5-yl)phenyl)-5-pyrimidinyl)-1H-imidazol-2-yl)ethyl)-2-phenylacetamide] and `Cc1cc(-c2cnc([C@@H]3CCCN3C(=O)[C@@H](c3ccccc3)N(C)C)[nH]2)ccc1-c1ccc(-c2cnc([C@@H]3CCCN3C(=O)[C@@H](c3ccccc3)N(C)C)[nH]2)cc1` [Example 123, (1R,1′R)-2,2′-((2-methyl-4,4′-biphenyldiyl)bis(1H-imidazole-5,2-diyl(2S)-2,1-pyrrolidinediyl))bis(N,N-dimethyl-2-oxo-1-phenylethanamine)] fall in the same range of EC50: 0.001 to 0.999 nM for the first, 0.001 to 0.999 nM for the second.

`COC(=O)N[C@H](CC(=O)N1CCC[C@H]1c1ncc(-c2ccc(-c3ccc(-c4cnc([C@@H]5CCCN5C(=O)C[C@H](Cc5cccs5)NC(=O)OC)[nH]4)cc3)cc2)[nH]1)Cc1cccs1` [cj-136, dimethyl (4,4′-biphenyldiylbis(1H-imidazole-5,2-diyl(2S)-2,1-pyrrolidinediyl((2R)-4-oxo-1-(2-thienyl)-4,2-butanediyl)))biscarbamate] and `COC(=O)N[C@@H](C)C(=O)N1CCC[C@H]1c1ncc(-c2ccc(-c3ccc(-c4cnc([C@@H]5CCCN5C(=O)[C@H](Cc5cncn5C)NC(=O)OC)[nH]4)cc3)cc2)[nH]1` [cj-45, methyl ((1S)-2-((2S)-2-(5-(4′-(2-((2S)-1-(N-(methoxycarbonyl)-L-alanyl)-2-pyrrolidinyl)-1H-imidazol-5-yl)-4-biphenylyl)-1H-imidazol-2-yl)-1-pyrrolidinyl)-1-((1-methyl-1H-imidazol-5-yl)methyl)-2-oxoethyl)carbamate] fall in the same range of EC50: 0.001 to 0.999 nM for the first, 0.001 to 0.999 nM for the second.

`O=C([C@@H](c1ccccc1)N1CCOCC1)N1CCC[C@H]1c1ncc(-c2ccc(-c3ccc(-c4cnc([C@@H]5CCCN5C(=O)[C@@H](c5ccccc5)N5CCOCC5)[nH]4)cc3)cc2)[nH]1` [Example 18, 4,4′-(4,4′-biphenyldiylbis(1H-imidazole-5,2-diyl(2S)-2,1-pyrrolidinediyl((1R)-2-oxo-1-phenyl-2,1-ethanediyl)))dimorpholine] and `CCN(CC)[C@@H](C(=O)N1CCC[C@H]1c1ncc(-c2ccc(-c3ccc(-c4cnc([C@@H]5CCCN5C(=O)[C@@H](c5ccccc5)N5CCCC5)[nH]4)cc3)cc2)[nH]1)c1ccccc1` [Example 99, (1R)-N,N-diethyl-2-oxo-1-phenyl-2-((2S)-2-(5-(4′-(2-((2S)-1-((2R)-2-phenyl-2-(1-pyrrolidinyl)acetyl)-2-pyrrolidinyl)-1H-imidazol-5-yl)-4-biphenylyl)-1H-imidazol-2-yl)-1-pyrrolidinyl)ethanamine] fall in the same range of EC50: 0.001 to 0.999 nM for the first, 0.001 to 0.999 nM for the second.

`COC(=O)N[C@@H](C(=O)N1CCC[C@H]1c1ncc(-c2ccc(-c3ccc(-c4cnc([C@@H]5CCCN5C(=O)[C@H](NC(=O)OC)c5ccccc5)[nH]4)cn3)nc2)[nH]1)c1ccccc1` [Example 145, dimethyl (2,2′-bipyridine-5,5′-diylbis(1H-imidazole-5,2-diyl(2S)-2,1-pyrrolidinediyl((1R)-2-oxo-1-phenyl-2,1-ethanediyl)))biscarbamate] and `COC(=O)N[C@@H](C(=O)N1CCC[C@H]1c1ncc(-c2ccc(-c3ccc(-c4cnc([C@@H]5CCCN5C(=O)[C@@H](c5ccccc5)N(C)C)[nH]4)cc3C)c(C)c2)[nH]1)c1ccccc1` [Example 129, methyl ((1R)-2-((2S)-2-(5-(4′-(2-((2S)-1-((2R)-2-(dimethylamino)-2-phenylacetyl)-2-pyrrolidinyl)-1H-imidazol-5-yl)-2,2′-dimethyl-4-biphenylyl)-1H-imidazol-2-yl)-1-pyrrolidinyl)-2-oxo-1-phenylethyl)carbamate] fall in the same range of EC50: 0.001 to 0.999 nM for the first, 0.001 to 0.999 nM for the second.

`CC(C)(C)OC(=O)N[C@H]1CC[C@@H](C(=O)N2CCC[C@H]2c2ncc(-c3ccc(-c4ccc(-c5cnc([C@@H]6CCCN6C(=O)[C@@H](c6ccccc6)N6CCCCC6)[nH]5)cc4)cc3)[nH]2)CC1` [Example 107-13, tert-butyl (cis-4-(((2S)-2-(5-(4′-(2-((2S)-1-((2R)-2-phenyl-2-(1-piperidinyl)acetyl)-2-pyrrolidinyl)-1H-imidazol-5-yl)-4-biphenylyl)-1H-imidazol-2-yl)-1-pyrrolidinyl)carbonyl)cyclohexyl) carbamate] and `O=C([C@@H](c1ccccc1)N1CCCC1)N1CCC[C@H]1c1ncc(-c2ccc(-c3ccc(-c4cnc([C@@H]5CCCN5C(=O)[C@@H](c5ccccc5)N5CCCC5)[nH]4)cc3C(F)(F)F)cc2)[nH]1` [Example 131] fall in the same range of EC50: 0.001 to 0.999 nM for the first, 0.001 to 0.999 nM for the second.

First: C[C@@H](C(=O)N1CCC[C@H]1c1ncc(-c2ccc(-c3ccc(-c4cnc([C@@H]5CCCN5C(=O)[C@H](C)N(C)Cc5ccccc5)[nH]4)cc3)cc2)[nH]1)N(C)Cc1ccccc1 [Example 24-4f, (2S,2′S)-1,1′-(4,4′-biphenyldiylbis(1H-imidazole-5,2-diyl(2S)-2,1-pyrrolidinediyl))bis(N-benzyl-N-methyl-1-oxo-2-propanamine)]
Second: CN(C)[C@@H](C(=O)N1CCC[C@H]1c1ncc(-c2ccc(-c3ccc(-c4cnc([C@@H]5CCCN5C(=O)Cc5noc6ccccc56)[nH]4)cc3)cc2)[nH]1)c1ccccc1 [Example 94-55, (1R)-2-((2S)-2-(5-(4′-(2-((2S)-1-(1,2-benzisoxazol-3-ylacetyl)-2-pyrrolidinyl)-1H-imidazol-5-yl)-4-biphenylyl)-1H-imidazol-2-yl)-1-pyrrolidinyl)-N,N-dimethyl-2-oxo-1-phenylethanamine]
The EC50 of the first is higher: 100 to 999 nM for the first, 0.001 to 0.999 nM for the second. The second is the more potent here.

`O=C(OCc1ccccc1)c1nc([C@@H]2CCCN2C(=O)[C@@H](c2ccccc2)N2CCCCC2)[nH]c1-c1ccc(-c2ccc(-c3cnc([C@@H]4CCCN4C(=O)[C@@H](c4ccccc4)N4CCCCC4)[nH]3)cc2)cc1` [Example J23, benzyl 2-((2S)-1-((2R)-2-phenyl-2-(1-piperidinyl)acetyl)-2-pyrrolidinyl)-5-(4′-(2-((2S)-1-((2R)-2-phenyl-2-(1-piperidinyl)acetyl)-2-pyrrolidinyl)-1H-imidazol-5-yl)-4-biphenylyl)-1H-imidazole-4-carboxylate] and `COC(=O)N[C@@H](C(=O)N1CCC[C@H]1c1nc(-c2ccc(-c3ccc(-c4cnc([C@@H]5CC6CCCCC6N5C(=O)[C@H](NC(=O)OC)c5ccccc5)[nH]4)cc3)cc2)c[nH]1)c1ccccc1` (relative stereo) [Example F8, methyl rel-((1R)-2-((2S)-2-(4-(4′-(2-((2S)-1-((2R)-2-((methoxycarbonyl)amino)-2-phenylacetyl)octahydro-1H-indol-2-yl)-1H-imidazol-5-yl)-4-biphenylyl)-1H-imidazol-2-yl)-1-pyrrolidinyl)-2-oxo-1-phenylethyl)carbamate] fall in the same range of EC50: 0.001 to 0.999 nM for the first, 0.001 to 0.999 nM for the second.

`COC(=O)N[C@H](C(=O)N1CCC[C@H]1c1ncc(-c2ccc(-c3ccc(-c4cnc([C@@H]5CCCN5C(=O)[C@@H](N)C(C)C)[nH]4)cc3)cc2)[nH]1)C(C)C` [Example M108, methyl ((1S)-2-methyl-1-(((2S)-2-(5-(4′-(2-((2S)-1-L-valyl-2-pyrrolidinyl)-1H-imidazol-5-yl)-4-biphenylyl)-1H-imidazol-2-yl)-1-pyrrolidinyl)carbonyl)propyl)carbamate] and `CN[C@H](C(=O)N1CCC[C@H]1c1nc(-c2ccc(-c3ccc(-c4cnc([C@@H]5CCCN5C(=O)[C@@H](NC)C(C)C)[nH]4)cc3)cc2)c[nH]1)C(C)C` [Example F34, (2S)-N,3-dimethyl-1-((2S)-2-(4-(4′-(2-((2S)-1-((2S)-3-methyl-2-(methylamino)butanoyl)-2-pyrrolidinyl)-1H-imidazol-5-yl)-4-biphenylyl)-1H-imidazol-2-yl)-1-pyrrolidinyl)-1-oxo-2-butanamine] fall in the same range of EC50: 1 to 99 nM for the first, 1 to 99 nM for the second.

For `COC(=O)N[C@H](C(=O)N1CCC[C@H]1c1nc(-c2ccc(-c3ccc(-c4c[nH]c([C@@H]5CCCN5C(=O)[C@H](C)NC5CCOCC5)n4)cc3)cc2)c[nH]1)C(C)C` [Example F48, methyl ((1S)-2-methyl-1-(((2S)-2-(4-(4′-(2-((2S)-1-(N-(tetrahydro-2H-pyran-4-yl)-L-alanyl)-2-pyrrolidinyl)-1H-imidazol-4-yl)-4-biphenylyl)-1H-imidazol-2-yl)-1-pyrrolidinyl)carbonyl)propyl)carbamate], the EC50 was 0.001 to 0.999 nM.

Reference: patent US8574563B2 (Bristol-Myers Squibb Company, priority 2006, dated 2013)
